One assay addresses T1, PDK1 kinase (Homo sapiens, UniProt O15530).
T1 sequence (O15530 1-556): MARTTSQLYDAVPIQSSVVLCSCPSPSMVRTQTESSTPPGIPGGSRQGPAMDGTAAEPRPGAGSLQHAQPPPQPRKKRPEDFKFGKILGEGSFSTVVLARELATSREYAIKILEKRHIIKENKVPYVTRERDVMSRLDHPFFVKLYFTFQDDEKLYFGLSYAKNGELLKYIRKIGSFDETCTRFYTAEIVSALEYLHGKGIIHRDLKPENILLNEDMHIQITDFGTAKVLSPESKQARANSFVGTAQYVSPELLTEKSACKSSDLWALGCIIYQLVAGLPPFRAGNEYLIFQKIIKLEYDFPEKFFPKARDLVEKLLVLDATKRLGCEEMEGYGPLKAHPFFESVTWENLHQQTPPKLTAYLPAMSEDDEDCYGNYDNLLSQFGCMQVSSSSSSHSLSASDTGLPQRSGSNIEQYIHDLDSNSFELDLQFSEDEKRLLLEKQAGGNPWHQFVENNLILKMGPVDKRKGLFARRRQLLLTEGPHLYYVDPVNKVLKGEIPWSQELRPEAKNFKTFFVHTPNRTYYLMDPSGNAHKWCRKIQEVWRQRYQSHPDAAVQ
Put plainly: PDK1 Kinase Alpha Screen Assay. The following applies: PDK1 Kinase Alpha Screen Assay; read-out: PDK1 IC50. Type of assay: biochemical. The method, boiled down:
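PDK1, 10 uM ATP, 50 nM biotin-PDK1-4 peptide; 50 mM Tris pH 7.5, 10 mM MgCl2, 0.1% BSA, 0.01% Tween-20, 2 mM DTT, 2.5% DMSO; 3-18 h. EDTA stop; AlphaScreen, phospho-Ser/Thr antibody, overnight RT.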

The subject of the next assay is A2780 cells. Description: Cell Proliferation Assay (Cell Titer Glo), A2780. Conditions: Homo sapiens; cell proliferation, A2780 cells; read-out: CPEC50 A2780. Type of assay: cell-based. The method, boiled down: (§1)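 Following a 3-day compound exposure (37° C., 5% CO2) of A2780 or PC3MM cells plated at 1000 per well, viability was measured by Cell Titer Glo luminescence in fresh medium, read 10 min after reagent addition.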
Background: In ATP-based viability assays light output follows the ATP content of the culture.

The subject of the next assay is PC3MM cells. Description: Cell Proliferation Assay (Cell Titer Glo), PC3MM. Type of assay: cell-based. Conditions: cell proliferation, PC3MM cells; read-out: CPEC50 PC3MM. In outline:
as §1

A value given as a limit tells only on which side of the number the result lay.

One may read the IC50 as the midpoint of a concentration-inhibition curve.

In the case of `NS(=O)(=O)c1ccc(Nc2ncc3cccc(-c4ccnc(F)c4)c3n2)cc1` [Compound 741, 4-(8-(2-fluoropyridin-4-yl)quinazolin-2-ylamino)benzenesulfonamide], the concentration for half-maximal inhibition (IC50) at PDK1 kinase is below 5 µM. Also, the EC50 in the assay with A2780 cells and in the assay with PC3MM cells was below 5 µM each time.

For the compound `NS(=O)(=O)c1ccc(Nc2ncc3cccc(-c4cccnc4)c3n2)cc1` [Compound 742, 4-(8-(pyridin-3-yl)quinazolin-2-ylamino)benzenesulfonamide], the IC50 on PDK1 kinase was below 5 µM. Moreover, the results for the EC50 with A2780 cells and in the assay with PC3MM cells were 5 to 10 µM and below 5 µM, respectively.

In the case of `NS(=O)(=O)c1ccc(Nc2ncc3cccc(-c4ccncc4)c3n2)cc1` [Compound 743, 4-(8-(pyridin-4-yl)quinazolin-2-ylamino)benzenesufonamide], the 50% inhibitory concentration (IC50) on PDK1 kinase was below 5 µM. For the same compound, the EC50 is 5 to 10 µM with A2780 cells and below 5 µM in the assay on PC3MM cells.

For the compound `COCCNc1cc(-c2cccc3cnc(Nc4ccc(S(N)(=O)=O)cc4)nc23)ccn1` [Compound 745, 4-(8-(2-(2-methoxyethylamino)pyridin-4-yl)quinazolin-2-ylamino)benzenesulfonamide], the IC50 at PDK1 kinase is below 5 µM. Also, the EC50 in the assay on A2780 cells and in the assay on PC3MM cells was below 5 µM each time.

As to `CC(=O)NCCNc1cc(-c2cccc3cnc(Nc4ccc(S(N)(=O)=O)cc4)nc23)ccn1` [Compound 746, N-(2-(4-(2-(4-sulfamoylphenylamino)quinazolin-8-yl)pyridin-2-ylamino)ethyl)acetamide], the IC50 on PDK1 kinase was below 5 µM. Further, the EC50 is 5 to 10 µM in the assay on A2780 cells and below 5 µM in the assay on PC3MM cells.

On to `NS(=O)(=O)c1ccc(Nc2ncc3cccc(-c4ccnc(NCCN5CCCC5)c4)c3n2)cc1` [Compound 747, 4-(8-(2-(2-(pyrroIidin-1-yl)ethylamino)pyridin-4-yl)quinazolin-2-ylamino)benzenesulfonamide], for which the half-maximal inhibitory concentration (IC50) on PDK1 kinase is below 5 µM. In addition, the EC50 in the assay on A2780 cells and in the assay on PC3MM cells was below 5 µM throughout.

With `NS(=O)(=O)c1ccc(Nc2ncc3cccc(-c4cnoc4)c3n2)cc1` [Compound 748, 4-(8-(isoxazol-4-yl)quinazolin-2-ylamino)benzenesulfonamide], the 50% inhibitory concentration (IC50) at PDK1 kinase was below 5 µM. The EC50 in the assay on A2780 cells and in the assay with PC3MM cells was below 5 µM throughout.

In the case of `NS(=O)(=O)c1ccc(Nc2ncc3cccc(-c4cn[nH]c4)c3n2)cc1` [Compound 751, 4-(8-(1H-pyrazol-yl)quinazolin-2-ylamino)benzenesulfonamide], on PDK1 kinase, the IC50 is below 5 µM. Further, the EC50 with A2780 cells and with PC3MM cells was below 5 µM in each case.

Consider `NS(=O)(=O)c1ccc(Nc2ncc3cccc(-c4ccnc(N5CCOCC5)c4)c3n2)cc1` [Compound 752, 4-(8-(2-morpholinopyridin-4-yl)quinazolin-2-ylamino)benzenesulfonamide], for which the half-maximal inhibitory concentration (IC50) at PDK1 kinase was below 5 µM. Further, the EC50 in the assay on A2780 cells and with PC3MM cells was below 5 µM each time.

For the compound `CN1CCN(c2cc(-c3cccc4cnc(Nc5ccc(S(N)(=O)=O)cc5)nc34)ccn2)CC1` [Compound 753, 4-(8-(2-(4-methylpiperazin-1-yl)pyridin-4-yl)quinazolin-2-ylamino)benzenesulfonamide], the concentration for half-maximal inhibition (IC50) on PDK1 kinase was below 5 µM. Further, the EC50 in the assay with A2780 cells and in the assay with PC3MM cells was below 5 µM in each case.

On to `NS(=O)(=O)c1ccc(Nc2ncc3cccc(-c4ccnc(N5CCS(=O)(=O)CC5)c4)c3n2)cc1` [Compound 754], for which the IC50 at PDK1 kinase was below 5 µM. Moreover, the EC50 with A2780 cells and in the assay with PC3MM cells was below 5 µM throughout.

As to `NS(=O)(=O)c1ccc(Nc2ncc3cccc(-c4ccnc(N5CCNC(=O)C5)c4)c3n2)cc1` [Compound 755, 4-(8-(2-(3-oxopiperazin-1-yl)pyridin-4-yl)quinazolin-2-ylamino)benzenesulfonamide], the IC50 on PDK1 kinase is below 5 µM. Moreover, the EC50 with A2780 cells and in the assay on PC3MM cells was below 5 µM throughout.

Consider `Nc1cc(-c2cccc3cnc(Nc4ccc(S(N)(=O)=O)cc4)nc23)ccn1` [Compound 756, 4-(8-(2-aminopyridin-4-yl)quinazolin-2-ylamino)benzenesulfonamide], for which, at PDK1 kinase, the IC50 was below 5 µM. Further, the EC50 in the assay on A2780 cells is 5 to 10 µM; in the assay on PC3MM cells, below 5 µM.

With `NS(=O)(=O)c1ccc(Nc2ncc3cccc(-c4ccccc4)c3n2)cc1` [Compound 757, 4-(8-phenylquinazolin-2-ylamino)benzenesulfonamide], the IC50 on PDK1 kinase is below 5 µM. Moreover, the EC50 in the assay with A2780 cells and in the assay on PC3MM cells was below 5 µM each time.

As to `NC(=O)c1ccc(-c2ccc3cnc(Nc4ccc(S(N)(=O)=O)cc4)nc3c2)cc1F` [Compound 759, 2-fluoro-4-(2-(4-sulfamoylphenylamino)quinazolin-7-yl)benzamide], the 50% inhibitory concentration (IC50) at PDK1 kinase is below 5 µM. Moreover, the EC50 in the assay on A2780 cells is 5 to 10 µM; in the assay with PC3MM cells it was below 5 µM.

In the case of `NS(=O)(=O)c1ccc(Nc2ncc3cccc(C(=O)N4CCCC4)c3n2)cc1` [Compound 760, 4-(8-(pyrrolidine-1-carbonyl)quinazolin-2-ylamino)benzenesulfonamide], on PDK1 kinase, the IC50 is below 5 µM. Moreover, the EC50 in the assay with A2780 cells is 5 to 10 µM; in the assay with PC3MM cells it was below 5 µM.

In the case of `COCCNC(=O)c1cccc2cnc(Nc3ccc(S(N)(=O)=O)cc3)nc12` [Compound 761, N-(2-methoxyethyl)-2-(4-sulfamoylphenylamino)quinazoline-8-carboxamide], the IC50 on PDK1 kinase was below 5 µM. For the same compound, the EC50 is below 5 µM in the assay on A2780 cells and 5 to 10 µM in the assay with PC3MM cells.

Take `NS(=O)(=O)c1ccc(Nc2ncc3cccc(C(=O)NCCN4CCCC4)c3n2)cc1` [Compound 762, N-(2-(pyrrolidin-1-yl)ethyl)-2-(4-sulfamoylphenylamino)quinazoline-8-carboxamide]: at PDK1 kinase, the half-inhibitory concentration (IC50) is below 5 µM. The EC50 was below 5 µM in the assay with A2780 cells and 5 to 10 µM with PC3MM cells.

As for `COCCN1CCN(C(=O)c2ccc3cnc(Nc4ccc(S(N)(=O)=O)cc4)nc3c2)CC1` [Compound 764, 4-(7-(4-(2-methoxyethyl)piperazine-1-carbonyl)quinazolin-2-ylamino)benzenesulfonamide], at PDK1 kinase, the concentration for half-maximal inhibition (IC50) fell in the range of 10 to 25 µM. Moreover, the EC50 in the assay on A2780 cells fell in the range of 5 to 10 µM; with PC3MM cells, 10 to 25 µM.

For `COc1cc(-c2cccc3cnc(Nc4ccc(S(N)(=O)=O)cc4)nc23)c(Cl)cn1` [Compound 765, 4-(8-(5-chloro-2-methoxypyridin-4-yl)quinazolin-2-ylamino)benzenesulfonamide], the concentration for half-maximal inhibition (IC50) on PDK1 kinase is below 5 µM. Also, the EC50 in the assay on A2780 cells and in the assay with PC3MM cells was below 5 µM in each case.

Take `CC(C)N1CCN(C(=O)c2ccc3cnc(Nc4ccc(S(N)(=O)=O)cc4)nc3c2)CC1` [Compound 766, 4-(7-(4-isopropylpiperazine-1-carbonyl)quinazolin-2-ylamino)benzenesulfonamide]: at PDK1 kinase, the half-maximal inhibitory concentration (IC50) is below 5 µM. The EC50 was 5 to 10 µM in the assay on A2780 cells and 10 to 25 µM in the assay with PC3MM cells.

For the compound `CN1CCC(NC(=O)c2ccc3cnc(Nc4ccc(S(N)(=O)=O)cc4)nc3c2)CC1` [Compound 767, N-(1-methylpiperidin-4-yl)-2-(4-sulfamoylphenylamino)quinazoline-7-carboxamide], on PDK1 kinase, the IC50 is below 5 µM. Further, the figures for the EC50 in the assay with A2780 cells and in the assay on PC3MM cells were 5 to 10 µM and below 5 µM, respectively.

`NS(=O)(=O)c1ccc(Nc2ncc3cccc(C(=O)N4CCOCC4)c3n2)cc1` [Compound 768, 4-(8-(morpholine-4-cartbonyl)quinazolin-2-ylamino)benzenesulfonamide]: at PDK1 kinase, the IC50 lay within 5 to 10 µM. Moreover, the EC50 in the assay on A2780 cells and in the assay with PC3MM cells was 5 to 10 µM each time.

In the case of `CN1CCN(C(=O)c2cccc3cnc(Nc4ccc(S(N)(=O)=O)cc4)nc23)CC1` [Compound 769, 4-(8-(4-methylpiperazine-1-carbonyl)quinazolin-2-ylamino)benzenesulfonamide], the half-inhibitory concentration (IC50) at PDK1 kinase is below 5 µM. Moreover, the results for the EC50 with A2780 cells and in the assay on PC3MM cells were 5 to 10 µM and below 5 µM, respectively.

As for `NS(=O)(=O)c1ccc(Nc2ncc3cccc(C(=O)N4CCS(=O)(=O)CC4)c3n2)cc1` [Compound 770], the IC50 on PDK1 kinase lay in the range of 10 to 25 µM. Moreover, the EC50 is 5 to 10 µM in the assay with A2780 cells and 10 to 25 µM in the assay with PC3MM cells.

For `O=S(=O)(c1cccc(Nc2ncc3cccc(OC4CCNCC4)c3n2)c1)N1CCOCC1` [Compound 773, N-(3-(morpholinosulfonyl)phenyl)-8-(piperidin-4-yloxy)quinazolin-2-amine], at PDK1 kinase, the 50% inhibitory concentration (IC50) is below 5 µM. In addition, the EC50 in the assay on A2780 cells and in the assay with PC3MM cells was below 5 µM in each case.

As to `CC(C)N1CCC(Oc2cccc3cnc(Nc4cccc(S(=O)(=O)N5CCOCC5)c4)nc23)CC1` [Compound 774, 8-(1-isopropylpiperidin-4-yloxy)-N-(3-(morpholinosulfonyl)phenyl)quinazolin-2-amine], at PDK1 kinase, the half-inhibitory concentration (IC50) is below 5 µM. Besides, the EC50 in the assay on A2780 cells and in the assay with PC3MM cells was below 5 µM in each case.

The record behind these values is patent US7932262B2 (Novartis AG, priority 2006, dated 2011).
